Laboratory results as given in PMC7246765, “Development of a Radiofluorinated Adenosine A2B Receptor Antagonist as Potential Ligand for PET Imaging” (International Journal of Molecular Sciences, 2020).
Like-named read-outs stand apart in the source and are kept apart here.

Tests used:
[1] = molecular target: T1, human adenosine A3 receptor (Homo sapiens, UniProt P0DMS8); test: Competitive radioligand binding with [3H]PSB-11, membranes of CHO or HEK cells; conditions: for Selectivity Ratio Ki(Ax)/Ki(A2B): A3/A2B: ratio of Ki values
T1 construct: host or cells: CHO or HEK cells
T1 sequence (P0DMS8 1-318): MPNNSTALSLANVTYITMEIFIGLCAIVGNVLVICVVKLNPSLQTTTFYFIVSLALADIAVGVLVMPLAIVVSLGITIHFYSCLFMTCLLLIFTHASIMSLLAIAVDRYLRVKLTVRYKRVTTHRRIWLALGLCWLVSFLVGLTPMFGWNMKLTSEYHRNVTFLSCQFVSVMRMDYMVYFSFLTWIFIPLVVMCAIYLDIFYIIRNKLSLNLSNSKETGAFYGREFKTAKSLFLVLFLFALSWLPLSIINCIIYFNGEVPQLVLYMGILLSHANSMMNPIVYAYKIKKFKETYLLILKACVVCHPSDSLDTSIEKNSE
Method: (§1) The binding affinities of 2 and 9 at the four human adenosine receptor subtypes A2B, A2A, A1, and A3, presented in Table 1, were determined in competitive binding assays using appropriate radioligands and membrane preparations of Chinese hamster ovary (CHO) cells or human embryonic kidney (HEK) cells, respectively, recombinantly expressing the corresponding human receptor subtype.
(§2) Membrane preparations of recombinant CHO or HEK (human embryonic kidney) cells expressing the respective human adenosine receptor subtype were obtained according to Borrman et al. or purchased from Perkin Elmer, Germany. Radioligand binding assays using human A1, A2A, A2B and A3 receptors were performed according to Alnouri et al..
(§3) [^3H](R)-8-ethyl-4-methyl-2-(phenyl)1,4,7,8-tetrahydro-5H-imidazo[2,1-i]purin-5-one ([^3H]PSB-11, molar activity: 53 Ci/mmol, 1 nM [30]) for the A3 receptor. Three separate experiments were performed to determine the Ki values. All data were analyzed with GraphPad Prism, Version 4.1 (GraphPad Inc., La Jolla, CA,USA).

[2] = molecular target: T1, human adenosine A3 receptor; conditions: cited from earlier work
[3] = molecular target: T2, human adenosine A2A receptor (Homo sapiens, UniProt P29274); test: Competitive radioligand binding with [3H]MSX-2, membranes of CHO or HEK cells; conditions: for Selectivity Ratio Ki(Ax)/Ki(A2B): A2A/A2B: ratio of Ki values
T2 construct: host or cells: CHO or HEK cells
T2 sequence (P29274 whole entry): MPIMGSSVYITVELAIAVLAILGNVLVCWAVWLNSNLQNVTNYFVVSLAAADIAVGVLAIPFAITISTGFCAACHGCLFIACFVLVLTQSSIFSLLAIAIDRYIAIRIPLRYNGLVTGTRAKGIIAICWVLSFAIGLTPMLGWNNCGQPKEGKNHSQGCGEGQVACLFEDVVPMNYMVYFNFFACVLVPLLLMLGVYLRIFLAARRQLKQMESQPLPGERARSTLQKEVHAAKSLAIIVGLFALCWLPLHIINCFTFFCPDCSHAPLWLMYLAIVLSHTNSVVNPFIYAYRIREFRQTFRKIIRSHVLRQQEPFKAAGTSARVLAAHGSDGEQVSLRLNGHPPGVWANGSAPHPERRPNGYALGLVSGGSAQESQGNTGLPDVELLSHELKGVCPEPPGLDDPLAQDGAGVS
Method: as §1, §2
[^3H]3-(3-hydroxypropyl)-7-methyl-8-(m-methoxystyryl)-1-propargylxanthine, ([^3H]MSX-2, molar activity: 84 Ci/mmol, 1 nM [29]) for the A2A receptor,
as §3

[4] = molecular target: T2, human adenosine A2A receptor; conditions: cited from earlier work
[5] = molecular target: T3, human adenosine A2B receptor (Homo sapiens, UniProt P29275); conditions: cited from earlier work
T3 construct: host or cells: CHO or HEK cells
T3 sequence (P29275 1-332): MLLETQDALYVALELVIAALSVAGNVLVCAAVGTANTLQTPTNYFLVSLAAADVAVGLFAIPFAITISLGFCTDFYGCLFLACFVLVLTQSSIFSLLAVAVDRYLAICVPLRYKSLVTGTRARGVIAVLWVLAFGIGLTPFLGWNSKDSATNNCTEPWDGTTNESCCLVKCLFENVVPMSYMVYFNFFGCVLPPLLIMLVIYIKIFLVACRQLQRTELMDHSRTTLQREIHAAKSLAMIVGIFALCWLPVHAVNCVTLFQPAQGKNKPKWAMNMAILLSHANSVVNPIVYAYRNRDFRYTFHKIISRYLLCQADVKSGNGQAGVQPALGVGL

[6] = molecular target: T4, human adenosine A1 receptor (Homo sapiens, UniProt P30542); test: Competitive radioligand binding with [3H]CCPA, membranes of CHO or HEK cells; conditions: for Selectivity Ratio Ki(Ax)/Ki(A2B): A1/A2B: ratio of Ki values
T4 construct: host or cells: CHO or HEK cells
T4 sequence (P30542 1-326): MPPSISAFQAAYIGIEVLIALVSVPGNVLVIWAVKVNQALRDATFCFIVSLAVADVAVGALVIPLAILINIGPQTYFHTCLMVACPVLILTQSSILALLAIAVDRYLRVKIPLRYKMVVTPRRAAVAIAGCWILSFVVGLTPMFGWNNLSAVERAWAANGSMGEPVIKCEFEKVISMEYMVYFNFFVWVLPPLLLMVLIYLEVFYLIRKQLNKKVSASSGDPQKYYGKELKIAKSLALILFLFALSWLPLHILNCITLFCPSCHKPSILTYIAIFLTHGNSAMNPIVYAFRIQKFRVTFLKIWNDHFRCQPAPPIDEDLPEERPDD
Method: as §1, §2
[^3H]2-Chloro-N^6cyclopentyladenosine ([^3H]CCPA, molar activity: 58 Ci/mmol, 1 nM [28]) for the A1 receptor,
as §3

[7] = molecular target: T4, human adenosine A1 receptor; conditions: cited from earlier work
[8] = design: method as in PMID 20138516; conditions: in vitro, rat hepatic microsomes; cited from earlier work
[9] = molecular target: T3, human adenosine A2B receptor; test: Competitive radioligand binding with [3H]PSB-603, membranes of CHO or HEK cells; conditions: mean ± SEM of three independent assays
Method: as §1, §2
[^3H]8-(4-[4-(4-chlorophenyl)piperazine-1-sulfonyl]phenyl)-1-propyl-2,3,6,7-tetrahydro-1H-purine-2,6-dione ([^3H]PSB-603, molar activity: 73Ci/mmol, 0.3 nM [26]) for the A2B receptor, and
as §3

SMILES	Selectivity Ratio Ki(Ax)/Ki(A2B): A3/A2B [1]	Ki [2]	Selectivity Ratio Ki(Ax)/Ki(A2B): A2A/A2B [3]	Ki [4]	Ki [5]	Selectivity Ratio Ki(Ax)/Ki(A2B): A1/A2B [6]	Ki [7]	Ki ([1]; [3H]PSB-11, mean ± SEM of three independent assays)	Ki ([3]; [3H]MSX-2, mean ± SEM of three independent assays)	metabolic stability [8]	Ki ([6]; [3H]CCPA, mean ± SEM of three independent assays)	Ki [9]
O=C(Nc1cnc(-c2ccnc(F)c2)c(-c2ccccc2F)n1)C1CC1 [Compound 1]	188	0.796 ± 0.026 µM	13	0.055 ± 0.0061 µM	0.00424 ± 4e-05 µM	4.5	0.019 ± 0.0052 µM					
O=c1[nH]c(=O)c2cc(-c3ccncn3)c(-c3ccco3)nc2[nH]1 [Compound 2, 7-(Furan-2-yl)-6-(pyrimidin-4-yl)pyrido[2,3-d]pyrimidine-2,4-(1H,3H)-dione]	> 400		39			> 400		> 1 µM	0.0988 ± 0.0283 µM	high metabolic stability	> 1 µM	0.00251 ± 0.0011 µM
